Experimental data taken from US20230348394A1, “COMPOSITIONS AND METHODS FOR TREATING MUSCULAR DYSTROPHIES” (The Regents of the University of California, priority 2020, published 2023).

Experiments:
[1] = test system: membrane-associated utrophin; assay: Cell surface protein biotinylation and utrophin immunoblot, mdx myotubes; type: cell-based, murine; conditions: 5 μM, 48 hours
Description: Myotubes treated for 48 hrs were lysed using RIPA buffer (Thermo Fisher Scientific) containing Halt Protease Inhibitor Cocktail (Thermo Fisher Scientific). Cell lysates in RIPA buffer were rocked for 1 hr at 4° C. and centrifuged at 1,000 RPM for 30 mins at 4° C. The supernatant was collected, quantified for protein concentration using the DC protein assay (Bio-Rad), and normalized to 2 mg/ml in water and Laemmli sample buffer with a final concentration of 10% glycerol (Sigma-Aldrich), 5% beta-mercaptoethanol (Sigma-Aldrich), 3% sodium dodecyl sulfate (Sigma-Aldrich), and 0.05% bromophenol blue (Sigma-Aldrich). For SDS-PAGE, samples were heated to 95° C. for 2 mins before loading 40 μg onto 4-12% tris-glycine or bis-tris polyacrylamide gels (Novex), electrophoresed for 2 hrs at 100 volts at RT, and transferred to a nitrocellulose membrane for 2 hrs at 100 volts at 4° C. Ponceau S staining was performed to visualize protein loading and verify protein transfer. […] Autoradiography films were developed using a SRX-101A tabletop processor (Konica Minolta), scanned to a digital file, and analyzed by densitometry of bands using ImageJ version 1.51 s. […]

SSPN gene expression = SSPN gene expression in tibialis anterior after intramuscular injection in mdx mice; type: in vivo; conditions: 4 hours
Description: For the preliminary safety assessment of OT-9, we performed IP injections in 6 month old C57/B16 males. The mice were injected with 100 μl of vehicle (5% DMSO (Sigma), 95% PBS), 100 μl of 30 mg/kg of OT-9 in vehicle, or 100 μl of 50 mg/kg of OT-9 in vehicle (n=1 mouse per treatment). […] For assessment of activity, 20-weeks old male mdx littermates were injected in both tibialis anterior muscles with vehicle (5% DMSO, 95% PBS) or 86 μg of OT-9. Two mice were injected in both TAs with vehicle and three mice were injected in both TAs with 200 of OT-9 (9.4 mM solution containing 86 μg of OT-9). After 4 hours, the muscles were harvested and processed for gene expression analysis. For assessment of activity of OT-9m after local administration, 19-22-weeks old mdx males were injected in both tibialis anterior muscles with vehicle (5% DMSO, 95% PBS) or 3 mg/kg and 10 mg/kg of OT-9m. After 4 hours, the muscles were harvested and processed for gene expression analysis. For assessment of activity of OT-9m after systemic administration, 13-weeks old mdx males were injected subcutaneously with vehicle (4% PEG-200 in hydroxypropyl-b-cyclodextrin) or 20 mg/kg/day of OT-9m. After 13 days of treatment, the muscles were harvested and processed for gene expression analysis.
After the preliminary safety evaluation, we tested the ability of OT-9 to increase SSPN gene expression in vivo. […] Five 20-weeks old male mdx littermates were subjected to intramuscular injections in both tibialis anterior (TA) muscles. Two mice were injected in both TAs with vehicle and […] were injected with 3 mg/kg of OT-9 (molar equivalent of 9.4 mM used in the safety assessment). After 4 hours of treatment, the TAs were harvested and processed for gene expression analysis. […] After determination that OT-9 is capable of increasing SSPN gene expression in vivo, we evaluated one of its derivatives, OT-9m, for its ability to increase SSPN expression in mdx mice. OT-9m was chosen based on its improved activity in vitro compared to OT-9 (compare, Table 1, entries 1 & 14). To assess activity OT-9m in vivo after local administration, eleven 19-22 weeks old male mdx mice were subjected to intramuscular injections in both tibialis anterior (TA) muscles. Four mice were injected in both TAs with vehicle, three mice were injected with 3 mg/kg of OT-9m and four mice were injected with 10 mg/kg of OT-9m. After 4 hours of treatment, the TAs were harvested and processed for gene expression analysis.

## CCN(CC)c1ccc2cc(C(=O)Nc3ccc(C(=O)N4CCCCCC4)cc3)c(=O)oc2c1 [OT-9]
[1]
  increase in membrane-associated utrophin protein: 1.6 fold
SSPN gene expression; 3 mg/kg intramuscular, tibialis anterior
  increase in SSPN gene expression relative to the vehicle control-treated group: 1.7 fold
SSPN gene expression; OT-9 3 mg/kg intramuscular, both TA
  adverse effects after local injection: No adverse effects
